{"source": "PubChem BioAssay AID1963967", "about": "(Molecular Pharmacology Branch, DTP, NCI, 2024);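 note: agents incubated with spheroids for one week before read-out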;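 for viability, T/C: 100% = DMSO vehicle-treated control wells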", "tested_on": "855422-203-R-J1-PDC spheroids with HUVEC/MSC, viability", "assay": "Anticancer human tumor 855422-203-R-J1-PDC patient-derived bladder carcinoma cell line growth inhibition [PI3K]", "settings": "for IC50: curve of first compound; for viability, T/C: stronger effect = lower value", "method_in_brief": "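Targeted small molecules plus PI3K inhibitors, half-log dose series from Cmax (default top 10 microM), were applied to heterotypic spheroids of cancer cells with HUVEC and MSCs. Viability indicated growth inhibition.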", "key": {"[1]": {"settings": "second compound 0.0316 µM, first compound 0.0316 µM"}, "[2]": {"settings": "second compound 0.0316 µM, first compound 0.1 µM"}, "[3]": {"settings": "second compound 0.0316 µM, first compound 0.316 µM"}, "[4]": {"settings": "second compound 0.0316 µM, first compound 1 µM"}, "[5]": {"settings": "second compound 0.0316 µM, first compound 3.16 µM"}, "[6]": {"settings": "second compound 0.0316 µM, first compound 10 µM"}, "[7]": {"settings": "second compound 0.1 µM, first compound 0.0316 µM"}, "[8]": {"settings": "second compound 0.1 µM, first compound 0.1 µM"}, "[9]": {"settings": "second compound 0.1 µM, first compound 0.316 µM"}, "[10]": {"settings": "second compound 0.1 µM, first compound 1 µM"}, "[11]": {"settings": "second compound 0.1 µM, first compound 3.16 µM"}, "[12]": {"settings": "second compound 0.1 µM, first compound 10 µM"}, "[13]": {"settings": "second compound 0.316 µM, first compound 0.0316 µM"}, "[14]": {"settings": "second compound 0.316 µM, first compound 0.1 µM"}, "[15]": {"settings": "second compound 0.316 µM, first compound 0.316 µM"}, "[16]": {"settings": "second compound 0.316 µM, first compound 1 µM"}, "[17]": {"settings": "second compound 0.316 µM, first compound 3.16 µM"}, "[18]": {"settings": "second compound 0.316 µM, first compound 10 µM"}, "[19]": {"settings": "second compound 1 µM, first compound 0.0316 µM"}, "[20]": {"settings": "second compound 1 µM, first compound 0.1 µM"}, "[21]": {"settings": "second compound 1 µM, first compound 0.316 µM"}, "[22]": {"settings": "second compound 1 µM, first compound 1 µM"}, "[23]": {"settings": "second compound 1 µM, first compound 3.16 µM"}, "[24]": {"settings": "second compound 1 µM, first compound 10 µM"}}}
{"smiles": "CC1(C)CCC(CN2CCN(c3ccc(C(=O)NS(=O)(=O)c4ccc(NCC5CCOCC5)c([N+](=O)[O-])c4)c(Oc4cnc5[nH]ccc5c4)c3)CC2)=C(c2ccc(Cl)cc2)C1", "note": "+ COc1c(OCCCN2CCOCC2)ccc2c3n(c(=NC(=O)c4cnc(N)nc4)nc12)CCN3", "values": [{"measurement": "IC50", "setting": "second compound 0.00316 µM", "result": 5.28, "unit": "µM"}, {"measurement": "IC50", "setting": "second compound 0.01 µM", "result": 5.04, "unit": "µM"}, {"measurement": "IC50", "setting": "second compound 0.0316 µM", "result": 4.6, "unit": "µM"}, {"measurement": "IC50", "setting": "second compound 0.1 µM", "result": "< 0.0316", "unit": "µM"}, {"measurement": "IC50", "setting": "second compound 0.316 µM", "result": "< 0.0316", "unit": "µM"}, {"measurement": "IC50", "setting": "second compound 1 µM", "result": "< 0.0316", "unit": "µM"}, {"measurement": "viability, T/C", "setting": "second compound 0.00316 µM, first compound 0.0316 µM", "result": 98.5, "unit": "%"}, {"measurement": "viability, T/C", "setting": "second compound 0.00316 µM, first compound 0.1 µM", "result": 80.8, "unit": "%"}, {"measurement": "viability, T/C", "setting": "second compound 0.00316 µM, first compound 0.316 µM", "result": 99.5, "unit": "%"}, {"measurement": "viability, T/C", "setting": "second compound 0.00316 µM, first compound 1 µM", "result": 87.2, "unit": "%"}, {"measurement": "viability, T/C", "setting": "second compound 0.00316 µM, first compound 3.16 µM", "result": 88.1, "unit": "%"}, {"measurement": "viability, T/C", "setting": "second compound 0.00316 µM, first compound 10 µM", "result": 2.53, "unit": "%"}, {"measurement": "viability, T/C", "setting": "second compound 0.01 µM, first compound 0.0316 µM", "result": 91, "unit": "%"}, {"measurement": "viability, T/C", "setting": "second compound 0.01 µM, first compound 0.1 µM", "result": 77.5, "unit": "%"}, {"measurement": "viability, T/C", "setting": "second compound 0.01 µM, first compound 0.316 µM", "result": 78.3, "unit": "%"}, {"measurement": "viability, T/C", "setting": "second compound 0.01 µM, first compound 1 µM", "result": 76.4, "unit": "%"}, {"measurement": "viability, T/C", "setting": "second compound 0.01 µM, first compound 3.16 µM", "result": 90.8, "unit": "%"}, {"measurement": "viability, T/C", "setting": "second compound 0.01 µM, first compound 10 µM", "result": 1.94, "unit": "%"}, {"measurement": "viability, T/C", "setting": "[1]", "result": 62.5, "unit": "%"}, {"measurement": "viability, T/C", "setting": "[2]", "result": 65.3, "unit": "%"}, {"measurement": "viability, T/C", "setting": "[3]", "result": 73.7, "unit": "%"}, {"measurement": "viability, T/C", "setting": "[4]", "result": 78.2, "unit": "%"}, {"measurement": "viability, T/C", "setting": "[5]", "result": 87.3, "unit": "%"}, {"measurement": "viability, T/C", "setting": "[6]", "result": 1.43, "unit": "%"}, {"measurement": "viability, T/C", "setting": "[7]", "result": 29.7, "unit": "%"}, {"measurement": "viability, T/C", "setting": "[8]", "result": 30.3, "unit": "%"}, {"measurement": "viability, T/C", "setting": "[9]", "result": 30.6, "unit": "%"}, {"measurement": "viability, T/C", "setting": "[10]", "result": 33.5, "unit": "%"}, {"measurement": "viability, T/C", "setting": "[11]", "result": 31.8, "unit": "%"}, {"measurement": "viability, T/C", "setting": "[12]", "result": 1.14, "unit": "%"}, {"measurement": "viability, T/C", "setting": "[13]", "result": 12.1, "unit": "%"}, {"measurement": "viability, T/C", "setting": "[14]", "result": 9.95, "unit": "%"}, {"measurement": "viability, T/C", "setting": "[15]", "result": 12.7, "unit": "%"}, {"measurement": "viability, T/C", "setting": "[16]", "result": 9.33, "unit": "%"}, {"measurement": "viability, T/C", "setting": "[17]", "result": 9.24, "unit": "%"}, {"measurement": "viability, T/C", "setting": "[18]", "result": 0.68, "unit": "%"}, {"measurement": "viability, T/C", "setting": "[19]", "result": 3.97, "unit": "%"}, {"measurement": "viability, T/C", "setting": "[20]", "result": 5.15, "unit": "%"}, {"measurement": "viability, T/C", "setting": "[21]", "result": 4.27, "unit": "%"}, {"measurement": "viability, T/C", "setting": "[22]", "result": 5.32, "unit": "%"}, {"measurement": "viability, T/C", "setting": "[23]", "result": 4.63, "unit": "%"}, {"measurement": "viability, T/C", "setting": "[24]", "result": 1.04, "unit": "%"}]}
{"smiles": "CC(C)NCC(C(=O)N1CCN(c2ncnc3c2C(C)CC3O)CC1)c1ccc(Cl)cc1", "note": "(centres undefined) + CC(Nc1ncnc2nc[nH]c12)c1cc2cccc(Cl)c2c(=O)n1-c1ccccc1", "values": [{"measurement": "IC50", "setting": "second compound 0.0316 µM", "result": 1.16, "unit": "µM"}, {"measurement": "IC50", "setting": "second compound 0.1 µM", "result": 1.12, "unit": "µM"}, {"measurement": "IC50", "setting": "second compound 0.316 µM", "result": 1.13, "unit": "µM"}, {"measurement": "IC50", "setting": "second compound 1 µM", "result": 1.13, "unit": "µM"}, {"measurement": "IC50", "setting": "second compound 3.16 µM", "result": 1.28, "unit": "µM"}, {"measurement": "IC50", "setting": "second compound 10 µM", "result": 0.937, "unit": "µM"}, {"measurement": "viability, T/C", "setting": "[1]", "result": 114, "unit": "%"}, {"measurement": "viability, T/C", "setting": "[2]", "result": 83.2, "unit": "%"}, {"measurement": "viability, T/C", "setting": "[3]", "result": 83.9, "unit": "%"}, {"measurement": "viability, T/C", "setting": "[4]", "result": 46.1, "unit": "%"}, {"measurement": "viability, T/C", "setting": "[5]", "result": 34.5, "unit": "%"}, {"measurement": "viability, T/C", "setting": "[6]", "result": 16.8, "unit": "%"}, {"measurement": "viability, T/C", "setting": "[7]", "result": 103, "unit": "%"}, {"measurement": "viability, T/C", "setting": "[8]", "result": 88.2, "unit": "%"}, {"measurement": "viability, T/C", "setting": "[9]", "result": 70, "unit": "%"}, {"measurement": "viability, T/C", "setting": "[10]", "result": 51.4, "unit": "%"}, {"measurement": "viability, T/C", "setting": "[11]", "result": 34.9, "unit": "%"}, {"measurement": "viability, T/C", "setting": "[12]", "result": 19, "unit": "%"}, {"measurement": "viability, T/C", "setting": "[13]", "result": 101, "unit": "%"}, {"measurement": "viability, T/C", "setting": "[14]", "result": 90.4, "unit": "%"}, {"measurement": "viability, T/C", "setting": "[15]", "result": 75.5, "unit": "%"}, {"measurement": "viability, T/C", "setting": "[16]", "result": 51.7, "unit": "%"}, {"measurement": "viability, T/C", "setting": "[17]", "result": 31.9, "unit": "%"}, {"measurement": "viability, T/C", "setting": "[18]", "result": 18.8, "unit": "%"}, {"measurement": "viability, T/C", "setting": "[19]", "result": 88.6, "unit": "%"}, {"measurement": "viability, T/C", "setting": "[20]", "result": 93, "unit": "%"}, {"measurement": "viability, T/C", "setting": "[21]", "result": 81.3, "unit": "%"}, {"measurement": "viability, T/C", "setting": "[22]", "result": 50.1, "unit": "%"}, {"measurement": "viability, T/C", "setting": "[23]", "result": 32.8, "unit": "%"}, {"measurement": "viability, T/C", "setting": "[24]", "result": 19.5, "unit": "%"}, {"measurement": "viability, T/C", "setting": "second compound 3.16 µM, first compound 0.0316 µM", "result": 88.4, "unit": "%"}, {"measurement": "viability, T/C", "setting": "second compound 3.16 µM, first compound 0.1 µM", "result": 81.8, "unit": "%"}, {"measurement": "viability, T/C", "setting": "second compound 3.16 µM, first compound 0.316 µM", "result": 73.1, "unit": "%"}, {"measurement": "viability, T/C", "setting": "second compound 3.16 µM, first compound 1 µM", "result": 47.6, "unit": "%"}, {"measurement": "viability, T/C", "setting": "second compound 3.16 µM, first compound 3.16 µM", "result": 40, "unit": "%"}, {"measurement": "viability, T/C", "setting": "second compound 3.16 µM, first compound 10 µM", "result": 16.3, "unit": "%"}, {"measurement": "viability, T/C", "setting": "second compound 10 µM, first compound 0.0316 µM", "result": 85.3, "unit": "%"}, {"measurement": "viability, T/C", "setting": "second compound 10 µM, first compound 0.1 µM", "result": 81.9, "unit": "%"}, {"measurement": "viability, T/C", "setting": "second compound 10 µM, first compound 0.316 µM", "result": 69.8, "unit": "%"}, {"measurement": "viability, T/C", "setting": "second compound 10 µM, first compound 1 µM", "result": 47.1, "unit": "%"}, {"measurement": "viability, T/C", "setting": "second compound 10 µM, first compound 3.16 µM", "result": 30.1, "unit": "%"}, {"measurement": "viability, T/C", "setting": "second compound 10 µM, first compound 10 µM", "result": 15.2, "unit": "%"}]}
